Laboratory results published in patent US6433022B1, “Spermicide” (Medical Research Council, priority 1997, dated 2002).

What was measured:
Assay type in all cases: cell-based
human spermatozoa [1] = assay: Effect of inhibitors on NADPH-induced ROS generation, lucigenin-dependent chemiluminescence; details: for Lucigenin dependent chemiluminescence: Treated, NADPH-induced, means ± SE; for effect on NADPH-dependent reactive oxygen species generation: dicoumarol 100 μM, sodium oxamate 1 mM, allopurinol 10 mM; for effect of mitochondrial electron transport chain inhibitors on response to NADPH: intact spermatozoa; for inhibition of the response to NAD(P)H: triton permeabilized cells
Source text: ROS generation was monitored by luminometry employing the chemiluminescence probes lucigenin and luminol. Lucigenin is sensitive to the presence of superoxide anion and was used to monitor the free radical responses to NAD(P)H. Luminol, when used in conjunction with horseradish peroxidase (HRP; Sigma Type Vl, 288 U/mg), detects mainly hydrogen peroxide (Aitken et al., 1992) and was used to monitor the responses of spermatozoa to PMA (phorbol 12-myristate, 13-acetate), an activator of protein kinase C. […] Photon emission was monitored at 37° C. using the Bermold 9505B luminometer (Berthold, Wilbad, Germany) featuring 6 electronically compensated, peltier cooled, photomultipliers and the results expressed as counts/minute. For both of the probes used, 400 μl of spermatozoa, at a concentration of 10×10^6/ml, were placed in a 3 ml plastic, flat-bottomed plastic tube. For luminol-based reactions, the spermatozoa were suspended in BWW supplemented with Albuminar, but when lucigenin was used the Albuminar was replaced with 1 mg/ml polyvinyl alcohol. A 4 μl aliquot of a 25 mM stock solution of either luminol or lucigenin m-dimethyl sulphoxide (DMSO), was then added to the cell suspension, resulting in a final probe concentration of 250 μM. For the measurement of hydrogen peroxide generation by intact cells, luminol-dependent chemiluminescence was enhanced by addition of 8 μl of HRP, freshly prepared at a concentration of 2 mg/ml in PBS, to give a final HRP concentration of 11.52 U/ml. The luminometer results were recorded as continuous traces and as integrated photon counts over a fixed period of time (5 min).
(§1) In all experiments, DPI was added to the spermatozoa before the addition of NADPH or PMA while control incubations were supplemented with DMSO alone. ROS generation was recorded for approximately 10 min to establish a steady state signal and then 45 μl of NADPH (final concentration 500 μM) or 4 μl of PMA (final concentration 100 nM) were added and the responses monitored for around 20 min using lucigenin and luminol-peroxidase based chemiluminescence respectively.
Quinacrine was purchased from Sigma and dissolved in 10% DMSO to give a stock solution of 10 mM. […] The impact of quinacrine on NADPH- and PMA-induced ROS generation was monitored as described above for DPI.

human spermatozoa [2] = assay: Effect of inhibitors on PMA-induced hydrogen peroxide production, luminol-peroxidase chemiluminescence; details: 100 nM PMA
Source text: ROS generation was monitored by luminometry employing the chemiluminescence probes lucigenin and luminol. Lucigenin is sensitive to the presence of superoxide anion and was used to monitor the free radical responses to NAD(P)H. Luminol, when used in conjunction with horseradish peroxidase (HRP; Sigma Type Vl, 288 U/mg), detects mainly hydrogen peroxide (Aitken et al., 1992) and was used to monitor the responses of spermatozoa to PMA (phorbol 12-myristate, 13-acetate), an activator of protein kinase C. […] Photon emission was monitored at 37° C. using the Bermold 9505B luminometer (Berthold, Wilbad, Germany) featuring 6 electronically compensated, peltier cooled, photomultipliers and the results expressed as counts/minute. […] The luminometer results were recorded as continuous traces and as integrated photon counts over a fixed period of time (5 min).
as §1, with “respectively. […]” for “respectively.”

human spermatozoa [3] = assay: Nicotinamide dinucleotide-induced superoxide generation, lucigenin-dependent chemiluminescence; details: 500 μM nucleotide
Source text: ROS generation was monitored by luminometry employing the chemiluminescence probes lucigenin and luminol. Lucigenin is sensitive to the presence of superoxide anion and was used to monitor the free radical responses to NAD(P)H. Luminol, when used in conjunction with horseradish peroxidase (HRP; Sigma Type Vl, 288 U/mg), detects mainly hydrogen peroxide (Aitken et al., 1992) and was used to monitor the responses of spermatozoa to PMA (phorbol 12-myristate, 13-acetate), an activator of protein kinase C. NAD(P)H could not be used with the luminol-peroxidase system because of the generation of high background signals, presumably due to the oxidase reactions of HRP. Photon emission was monitored at 37° C. using the Bermold 9505B luminometer (Berthold, Wilbad, Germany) featuring 6 electronically compensated, peltier cooled, photomultipliers and the results expressed as counts/minute. For both of the probes used, 400 μl of spermatozoa, at a concentration of 10×10^6/ml, were placed in a 3 ml plastic, flat-bottomed plastic tube. For luminol-based reactions, the spermatozoa were suspended in BWW supplemented with Albuminar, but when lucigenin was used the Albuminar was replaced with 1 mg/ml polyvinyl alcohol. A 4 μl aliquot of a 25 mM stock solution of either luminol or lucigenin m-dimethyl sulphoxide (DMSO), was then added to the cell suspension, resulting in a final probe concentration of 250 μM. For the measurement of hydrogen peroxide generation by intact cells, luminol-dependent chemiluminescence was enhanced by addition of 8 μl of HRP, freshly prepared at a concentration of 2 mg/ml in PBS, to give a final HRP concentration of 11.52 U/ml. The luminometer results were recorded as continuous traces and as integrated photon counts over a fixed period of time (5 min).
The ability of human spermatozoa to generate superoxide anion in response to NADPH was monitored by lucigenin-dependent chemiluminescence and compared with its non-phosphorylated and non-reduced counterparts, i.e. NADH, NADP^+ and NAD^+. In addition, the stimulatory properties of an isomer of NADPH, usually non-active in reductive biosynthesis, were examined. All pyridine nucleotides were made up to the required concentration in PBS immediately prior to use. Stock solutions of the nucleotides were made up at concentrations 10 fold higher than the required final working concentration, to allow for a 10 fold dilution on addition to the suspensions of spermatozoa.

human sperm = assay: Effect of quinones on sperm motility; details: for mean motility score: 50 μM quinone, human sperm
Procedure: Following the preparation of spermatozoa by standard Percoll gradient they were resuspended in homologous seminal plasma to a concentration of 20 million per ml, immediately prior to the beginning of the experiment. 50 μl of the sperm suspension was placed in an eppendorf tube, and the quinone was either added alone or in combination with other reagents, for example, KI, HRP (Horseradish Peroxidase), BHT (butylated hydroxytoluene) etc. depending on the experiment. The volume was made up to 100 μl with BWW/PVA.
The quinone was always the final reagent to be added. […] The sample was gently agitated and 10 μl was placed on a slide and a motility was scored. The aim was to score a motility approximately 20 seconds following the addition of the quinone. There were two controls set up, one motility count taken at the beginning of the experiment (initial control) and one motility count taken at the end of the experiment (final control). The controls consisted of 50 μl of the sperm suspension followed by the addition of 50 μl BWW/PVA. The reason for having two controls was to observe if any changes in sperm motility had occurred simply as a factor of time, i.e. from residing in seminal plasma for a long duration. At all times during the experiment, the spermatozoa were incubated in a hot box at 24° C. All motility experiments were carried out on sperm suspended in seminal plasma unless otherwise stated.

Molecule: Oc1ncnc2[nH]ncc12 [Allopurinol, allopurinol]
- Lucigenin dependent chemiluminescence (human spermatozoa [1]; inhibitor 10 mM): 7.19 ± 1.66 counts/5 min × 104
- effect on NADPH-dependent reactive oxygen species generation (human spermatozoa [1]): ineffective

Molecule: N#CC(C#N)=NNc1cccc(Cl)c1 [CCP, carbonyl cyanide m-chlorophenylhydrazone]
- Lucigenin dependent chemiluminescence (human spermatozoa [1]; inhibitor 10 μM): 12.61 ± 6.97 counts/5 min × 104
- effect of mitochondrial electron transport chain inhibitors on response to NADPH (human spermatozoa [1]): none of which were effective

Molecule: c1ccc2c(c1)[I+]c1ccccc1-2 [DPI, Diphenylene Iodonium]
- suppression of NADPH-induced free radical generation (human spermatozoa [1]; 500 μM NADPH, statistically significant at the 1 μM level (P<0.001)): dose-dependent capacity to suppress
- inhibition of PMA-stimulated hydrogen peroxide production (human spermatozoa [2]; dose range 0.01-100 μM): competent to inhibit

Molecule: O=c1oc2ccccc2c(O)c1Cc1c(O)c2ccccc2oc1=O [Dicoumarol, dicoumarol]
- Lucigenin dependent chemiluminescence (human spermatozoa [1]; inhibitor 100 μM): 5.20 ± 2.10 counts/5 min × 104
- effect on NADPH-dependent reactive oxygen species generation (human spermatozoa [1]): ineffective

Molecule: NC(=O)C1=CN([C@@H]2O[C@H](COP(=O)(O)OP(=O)(O)OC[C@H]3O[C@@H](n4cnc5c(N)ncnc54)[C@H](O)[C@@H]3O)[C@@H](O)[C@H]2O)C=CC1 [NADH]
- lucigenin-dependent chemiluminescent response (superoxide anion generation) (human spermatozoa [3]): approximately one third of that induced by β-NADPH

Molecule: NC(=O)c1ccc[n+]([C@@H]2O[C@H](COP(=O)([O-])OP(=O)(O)OC[C@H]3O[C@@H](n4cnc5c(N)ncnc54)[C@H](OP(=O)(O)O)[C@@H]3O)[C@@H](O)[C@H]2O)c1 [NADP^+]
- lucigenin-dependent chemiluminescent response (superoxide anion generation) (human spermatozoa [3]): almost completely without effect

Molecule: NC(=O)c1ccc[n+]([C@@H]2O[C@H](COP(=O)([O-])OP(=O)(O)OC[C@H]3O[C@@H](n4cnc5c(N)ncnc54)[C@H](O)[C@@H]3O)[C@@H](O)[C@H]2O)c1 [NAD^+]
- lucigenin-dependent chemiluminescent response (superoxide anion generation) (human spermatozoa [3]): almost completely without effect

Molecule: C=C(C)[C@H]1Cc2c(ccc3c2O[C@@H]2COc4cc(OC)c(OC)cc4[C@@H]2C3=O)O1 [Rotenone, rotenone]
- Lucigenin dependent chemiluminescence (human spermatozoa [1]; inhibitor 10 μM): 9.07 ± 2.26 counts/5 min × 104
- effect of mitochondrial electron transport chain inhibitors on response to NADPH (human spermatozoa [1]): none of which were effective
- inhibition of the response to NAD(P)H (human spermatozoa [1]): no inhibition

Molecule: NC(=O)C(=O)[O-].[Na+] [Sodium Oxamate, sodium oxamate]
- Lucigenin dependent chemiluminescence (human spermatozoa [1]; inhibitor 1 mM): 5.20 ± 2.10 counts/5 min × 104
- effect on NADPH-dependent reactive oxygen species generation (human spermatozoa [1]): ineffective

Molecule: [N-]=[N+]=[N-] [Sodium azide, sodium azide]
- Lucigenin dependent chemiluminescence (human spermatozoa [1]; inhibitor 10 μM): 7.69 ± 1.54 counts/5 min × 104

Molecule: O=C1C=CC(=O)c2c(O)cccc21 [juglone]
- mean motility score (human sperm): 5%
- IC50 (human sperm; human sperm in seminal plasma, motility scored approximately 20 seconds after addition, read-out: ID50, dose-dependent inhibition of sperm motility): ~10 µM

Molecule: O=C1C=C(O)C(=O)c2ccccc21 [lawsone]
- mean motility score (human sperm): 51%

Molecule: CC[C@H]1/C=C/C=C/C[C@@H](C)[C@H](O)[C@@](C)(O)C(=O)[C@@H](C)[C@H](O)[C@@H](C)C(=O)[C@@H](C)[C@H](O)[C@@H](C)/C=C/C(=O)O[C@@H]2[C@H](C)[C@H](CC1)O[C@]1(CC[C@H](C)[C@H](C[C@@H](C)O)O1)[C@H]2C [oligomycin]
- inhibition of the response to NAD(P)H (human spermatozoa [1]): no inhibition

Molecule: CC1=CC(=O)c2c(O)cccc2C1=O [plumbagin]
- mean motility score (human sperm): 54%

Molecule: CCN(CC)CCCC(C)Nc1c2ccc(Cl)cc2nc2ccc(OC)cc12 (stereo not shown) [quinacrine]
- suppression of NADPH-induced ROS production (human spermatozoa [1]; 500 μM NADPH, concentrations as high as 50 μM, no dose/response relationship): 30-40%
- suppression of responses to PMA (human spermatozoa [2]; doses of 75-100 M): complete loss of activity

Molecule: NC(=O)C1=CN([C@H]2O[C@H](COP(=O)(O)OP(=O)(O)OC[C@H]3O[C@@H](n4cnc5c(N)ncnc54)[C@H](OP(=O)(O)O)[C@@H]3O)[C@@H](O)[C@H]2O)C=CC1 [α NADPH]
- lucigenin-dependent chemiluminescent response (superoxide anion generation) (human spermatozoa [3]): lack of response

Molecule: antimycin A
- Lucigenin dependent chemiluminescence (human spermatozoa [1]; inhibitor 50 μM): 10.53 ± 2.49 counts/5 min × 104
- effect of mitochondrial electron transport chain inhibitors on response to NADPH (human spermatozoa [1]): none of which were effective
- inhibition of the response to NAD(P)H (human spermatozoa [1]): no inhibition
